The values below come from ChEMBL document CHEMBL1144122, “New scalaranes from the nudibranch Glossodoris atromarginata and its sponge prey” (1999).

Assay [1] can be described thus: (§1) Cytotoxicity against human thyroid carcinoma cells assessed as mortality. It counts as functional.
The species named for another assay is Homo sapiens. Described as §1. It counts as functional.

SMILES strings stand for the structures. Calls of active or inactive are those of the source. The calls are words filed in the database; no cut-off is given here.

Take `CC(=O)O[C@@H]1OC=C2[C@@H](OC(C)=O)C[C@H]3[C@]4(C)CC[C@H]5C(C)(C)CCC[C@]5(C)[C@H]4C[C@@H](O)[C@]3(C)[C@H]21` [HETERONEMIN]: the Activity in assay [1] is listed as 30%.

Turning to `CC1(C)CCC[C@]2(C)[C@H]3C[C@@H](O)[C@]4(C)[C@@H]5C(=CC[C@H]4[C@]3(C)CC[C@@H]12)CO[C@H]5O`, in the assay filed under Homo sapiens, the result was inactive.

Take `CC1(C)CCC[C@]2(C)[C@H]3CC(=O)[C@]4(C)[C@@H]5C(=CC[C@H]4[C@]3(C)CC[C@@H]12)CO[C@H]5O`: in assay [1], the Activity is given as 25%.
